Reference: publication PMC12261228 (ACS Pharmacology & Translational Science, 2025)
Read-outs that look alike come from different tables or passages of the source.

Assays:
[1] = tested on: HCT116p53–/–; assay: MTS cytotoxicity assay, 72 h; type: cell-based; details: read-out: IC50 HCT116p53–/–
[2] = tested on: U2OS; assay: MTS cytotoxicity assay, 72 h; type: cell-based, human
[3] = tested on: K562-TAX; assay: MTS cytotoxicity assay, 72 h; type: cell-based; details: read-out: IC50 K562-TAX
[4] = tested on: CCRF-CEM; assay: MTS cytotoxicity assay, 72 h; type: cell-based; details: Homo sapiens, CCRF-CEM, 72 h, read-out: IC50 CCRF-CEM, MTS assay, 3-day incubation, mean ± SD of 3 experiments
[5] = tested on: CCRF-CEM lymphoblasts; assay: FACS analysis of cell cycle, apoptosis, mitosis and polyploidy; details: for Mitosis: phospho-Histone (Ser10); for Apoptosis: sub-G0/G1 DNA content, % of positive cells
[6] = tested on: MRC-5; assay: MTS cytotoxicity assay, 72 h; type: cell-based; details: Homo sapiens, MRC5, 72 h, read-out: IC50 MRC-5
[7] = tested on: K562; assay: MTS cytotoxicity assay, 72 h; type: cell-based; details: Homo sapiens, K562, 72 h, read-out: IC50 K562
[8] = tested on: microtubules in U2OS cells; assay: Immunofluorescence of microtubule organization; type: cell-based, human; details: 10 μM, 15 h
Protocol: DMSO at appropriate dilution served as control.
Immunofluorescence microscopy on formaldehyde-fixed, Triton X-100 extracted cells (F/Tx) was performed as previously described. Extraction and fixation steps were carried out in a microtubule stabilizing buffer consisting of 0.1 M KMes, 2 mM EGTA, 2 mM MgCl2, 4% polyethylene glycol 6000, pH 6.9. Cells were fixed for 30 min in 3% formaldehyde before extraction for 4 min with 0.5% Triton X-100 at 37 °C. Mouse monoclonal antibody TU-01 (IgG1) directed to α-tubulin , in the form of hybridoma spent culture medium was diluted 1:10. The DyLight 549-conjugated antimouse antibody (Jackson Immunoresearch Laboratories, West Grove, PA, USA) was diluted 1:500. Samples were mounted in MOWIOL 4–88 (Calbiochem, San Diego, CA, USA) supplemented with 4,6-diamidino-2-phenylindole (DAPI; Sigma-Aldrich, St. Louis, MO, USA) and examined with an Olympus AX-70 Provis microscope (Olympus, Hamburg, Germany) equipped with a 60×/1.0 water objective.

[9] = tested on: HUVEC; assay: MTS cytotoxicity assay, 72 h; type: cell-based; details: Homo sapiens, 3-day incubation, mean ± SD
[10] = tested on: BJ; assay: MTS cytotoxicity assay, 72 h; type: cell-based; details: Homo sapiens, read-out: IC50 BJ
[11] = tested on: HCT116; assay: MTS cytotoxicity assay, 72 h; type: cell-based; details: Homo sapiens, HCT-116, 72 h, read-out: IC50 HCT116
[12] = tested on: panel of cell lines
[13] = tested on: CEM-DNR; assay: MTS cytotoxicity assay, 72 h; type: cell-based; details: Homo sapiens, read-out: IC50 CEM-DNR
[14] = tested on: panel of cell lines; assay: cells; details: read-out: IC50 values, cancer cell lines
[15] = Homo sapiens, U2OS, 72 h, read-out: IC50 U2OS, MTS assay, 3-day incubation, mean ± SD
[16] = read-out: IC50 U2OS, MTS assay, 3-day incubation, mean ± SD

| Structure (SMILES) | IC50 [1] | IC50 [2, 15] | IC50 [3] | IC50 [4] | G0/G1 ([5]; 1×IC50, 24 h) | G2/M ([5]; 1×IC50, 24 h) | Polyploid cells ([5]; 1×IC50, 24 h) | S ([5]; 1×IC50, 24 h) | Mitosis ([5]; 1×IC50, 24 h) | Apoptosis ([5]; 1×IC50, 24 h) | G0/G1 ([5]; 5×IC50, 24 h) | Polyploid cells ([5]; 5×IC50, 24 h) | S ([5]; 5×IC50, 24 h) | Mitosis ([5]; 5×IC50, 24 h) | Apoptosis ([5]; 5×IC50, 24 h) | IC50 [6] | IC50 [7] | IC50 [9] | IC50 [10] | IC50 [11] | also measured |
| --- | --- | --- | --- | --- | --- | --- | --- | --- | --- | --- | --- | --- | --- | --- | --- | --- | --- | --- | --- | --- | --- |
| COc1cc2c(c(OC)c1OC)-c1ccc(OC)c(=O)cc1[C@@H](n1cc(CCCCCCCCC3=C4C(C)=CC(C)=[N+]4[B-](F)(F)n4c(C)cc(C)c43)nn1)CC2 [CB5] | 770 ± 63 nM | < 2000 nM | 900 ± 26 nM | 420 ± 14 nM | 11.02% | 85.47% | 24.32% | 3.51% | 42.49% | 9.64% | 5.27% | 26.07% | 0.77% | 60.70% | 10.96% | > 50000 nM | 500 ± 122 nM | 450 ± 12 nM | > 50000 nM | 640 ± 65 nM | IC50 [2, 16]: 1040 ± 141 nM; effect on microtubules (in words) [8]: completely disrupted microtubules; RI (resistance index) [12]: 2.49; SI (selectivity index) [12]: >74.18; IC50 [13]: 1390 ± 139 nM |
| COc1cc2c(c(OC)c1OC)-c1ccc(OC)c(=O)cc1[C@@H](n1cc(CCCC3=C4C(C)=CC(C)=[N+]4[B-](F)(F)n4c(C)cc(C)c43)[n+](C)n1)CC2 [CB7] | 1430 ± 162 nM | < 2000 nM | 620 ± 84 nM | 840 ± 58 nM | 26.66% | 45.89% | 21.60% | 27.45% | 19.77% | 13.02% | 6.62% | 23.77% | 4.54% | 68.32% | 14.67% | > 50000 nM | 770 ± 22.4 nM | 1400 ± 104 nM | > 50000 nM | 1510 ± 330 nM | IC50 [2, 16]: 1960 ± 96 nM; G2/M ([5]; 5×IC50, 24 h): 88.84%; effect on microtubules (in words) [8]: microtubule remnants were detectable; RI (resistance index) [12]: 1.22; SI (selectivity index) [12]: >38.40; IC50 [13]: 1340 ± 229 nM |
| COc1cc2c(c(OC)c1OC)-c1ccc(N(C)CCCCC3=C4C(C)=CC(C)=[N+]4[B-](F)(F)n4c(C)cc(C)c43)c(=O)cc1[C@@H](NC(C)=O)CC2 [CB11] | 5520 ± 762 nM | 4620 ± 1230 nM | 5180 ± 198 nM | 2500 ± 567 nM | 35.98% | 30.38% | 13.64% | 33.64% | 4.83% | 5.26% | 10.48% | 24.88% | 10.23% | 59.86% | 16.42% | > 50000 nM | 1850 ± 204 nM | 5520 ± 290 nM | > 50000 nM | 4930 ± 729 nM | IC50 [14]: 2500 to 9000 nM; G2/M ([5]; 5×IC50, 24 h): 79.29%; RI (resistance index) [12]: 2.45; SI (selectivity index) [12]: >12.87; IC50 [13]: 5490 ± 935 nM |
